{"source": "patent US11730826B2", "about": "“Amphiphilic nanoparticles for delivery of CRISPR based therapy” (Massachusetts Institute of Technology, priority 2016, dated 2023)", "key": {"5′-GMP": {"test_system": "5′-GMP", "test": "5′-GMP binding with platinum species by 1HNMR", "method": "The binding kinetics of 5′-GMP to each platinum species were determined by measuring the relative amounts of free and Pt-bound 5′-GMP at each time point, integrating the ratio of the ^1HNMR peaks at 8.5 ppm to 8.09 ppm."}, "BCL-2 siRNA [1]": {"test_system": "BCL-2 siRNA", "test": "siRNA binding with platinum species by MALDI-TOF-MS", "conditions": "10-fold excess of platinum species", "procedure": "A single-stranded siRNA (UCAGGUACUCAGUCAUCCACATT) was mixed with OxaPt(II) at a molar ratio of 1:10 in RNAase free water (RNA final concentration: 50 μM; Pt final concentration: 500 μM; total volume: 100 μL). The reaction mixture was placed in a 37° C. incubator and 10 μL of sample were removed at various time points to obtain MALDI-TOF-MS spectra (positive model). Analogous methods were employed to obtain spectra of the reaction products of siRNA with OxaPt(IV), CisPt(II) and CisPt(IV)."}, "SMAD4 sgRNA": {"test_system": "SMAD4 sgRNA", "test": "Activity of sgRNA after incubation with small molecule anticancer agents (WB in Cas9-expressing SKOV3 cells)", "type": "cell-based, human", "conditions": "for suppression of SMAD4 protein by sgRNA after coincubation: 12 h of coincubation, effective = levels <30% of baseline; for effect of co-incubation on SMAD4 sgRNA suppression: up to 24 h prior to transfection", "procedure": "Activity of sgRNA after incubation with various small molecule anticancer agents: To determine the effects of platination or alkylation of sgRNA on silencing efficiency, SMAD4 sgRNA was first pre-incubated with various small molecules including Pt(II), Pt(IV)-COOH, doxorubicin, gemcitabine, camptothecin, or melphalan for either 12 h or 24 h, at 37° C., and at a drug to sgRNA molar ratio of 10:1 in RNase free water. The sgRNA was then purified by […] (Mw=3 kDa) and quantified by Nanodrop. The RNAi-MAX (Invitrogen, Thermo-fisher, USA) was utilized to transfect the reacted sgRNA (10 nM) into Cas9-expressing SKOV3 cells in 6-well plates. After 72 h, protein was recovered from cell lysates and analyzed by WB to quantify SMAD4 and GAPDH (product of a house-keeping gene; control) levels with respect to those of untreated cells. In addition, to compare the effects of Pt(II) and Pt(IV)-COOH interference with sgRNA-mediated recognition and target gene silencing by Cas9, various incubation periods were examined (i.e. 3, 6, and 9 h)."}, "s-SMAD4 [2]": {"test_system": "s-SMAD4", "test": "Reactions of sgRNA with anticancer agents by MALDI/TOF MS", "conditions": "for time at which RNA adducts were formed: excess agent; for adducts in the RNA macromolecule: 24 h of incubation", "procedure": "Determination of the reactions of sgRNA with anticancer agents by MALDI/TOF MS: A 20-mer of RNA comprising the seed region of SMAD4 sgRNA (s-SMAD4) was mixed with Pt(II), Pt(IV)-COOH, doxorubicin, gemcitabine, camptothecin or melphalan at a molar ratio of 1:10 in RNase free water (RNA final concentration (10 μM); small molecule (100 μM)). The reaction mixture was shaken in a 37° C. incubator for a prescribed time interval (30 min, 1 h, 3 h, 6 h, 9 h, 12 h, or 24 h); and, 10 μL of each solution was analyzed by MALDI/TOF MS (positive mode), employing hydroxipicolinic acid as the matrix."}, "s-SMAD4 [3]": {"test_system": "s-SMAD4", "test": "Kinetics of Pt-RNA adduct formation by AAS"}, "s-SMAD4 [4]": {"test_system": "s-SMAD4", "test": "PicoGreen based melting temperature assay of s-SMAD4/ss-DNA heterodimer", "procedure": "The Tm of the unreacted 20-mer and the ss-DNA (41° C.) resembled the calculated Tm of the heterodimer of the native SMAD4 sgRNA with DNA (43° C.)."}, "Cytoplasmic RNA": {"test_system": "Cytoplasmic RNA", "conditions": "upon intracellular uptake; cited from earlier work"}, "BCL-2 siRNA [5]": {"test_system": "BCL-2 siRNA", "test": "Silencing activity of BCL-2 siRNA preincubated with platinum species (qRT-PCR)", "type": "cell-based", "conditions": "MCF-7 cells, RT-qPCR 48 h after transfection, pre-incubation 1 vs. 12 h", "procedure": "48 hours after transfection, total RNA was isolated using an RNeasy mini-kit (Qiagen, Germantown, Md.) and quantified by NanoDrop. 300 ng of mRNA were subsequently subjected to qRT-PCR analysis, targeting BCL-2 and glyceraldehyde 3-phosphate dehydrogenase (GAPDH) by using the SYBR Premix Ex (Takara, USA) and by using an Applied Biosystems StepOne Real-Time PCR System. Relative gene expression values were determined by the […] using StepOne Software v2.1 (Applied Biosystems). Data are presented as fold differences in […] normalized to GAPDH (house-keeping gene used as endogenous reference), employing a standard curve, and are reported relative to untreated (control) cells. The sequence of the primers used for BCL-2 and GAPDH are as follows: BCL-2 forward—5-[…]-3; Bcl-2 reverse—5-[…]-3; GAPDH forward—5-[…]-3; and GAPDH reverse primer—5-[…]-3 (Integrated DNA Technology. IW, USA). The specificity of each set of primers was verified by melting curve analysis."}}}
{"smiles": "N.N.[Cl][Pt][Cl]", "note": "[CisPt(II), cisplatin]", "values": [{"measurement": "formation of Pt(NH3)2(5′-GMP)2 adducts", "setting": "5′-GMP; data not shown", "result": "rapid formation and time dependent increases"}, {"measurement": "earliest time Pt-siRNA adducts detected", "setting": "BCL-2 siRNA [1]", "result": "≤ 30", "unit": "m"}, {"measurement": "incubation time beyond which sgRNA was unable to prevent protein expression", "setting": "SMAD4 sgRNA", "result": "> 3", "unit": "h"}, {"measurement": "suppression of SMAD4 protein by sgRNA after coincubation", "setting": "SMAD4 sgRNA", "result": "unable to effectively suppress expression of SMAD4 protein"}, {"measurement": "time at which RNA adducts were formed", "setting": "s-SMAD4 [2]; aqueous solution, 37° C.", "result": 30, "unit": "min"}, {"measurement": "Pt atoms bound per RNA macromolecule", "setting": "s-SMAD4 [3]", "result": "up to 6"}, {"measurement": "RNA platinated", "setting": "s-SMAD4 [3]; incubated for 1 h with >10 μM", "result": "> 50", "unit": "%"}, {"measurement": "apparent second-order rate constant", "setting": "s-SMAD4 [3]; pseudo-first order kinetics", "result": "> 1e+07", "unit": "M⁻¹ s⁻¹"}, {"measurement": "heterodimerization of pretreated s-SMAD4 with ss-DNA", "setting": "s-SMAD4 [4]", "result": "could not heterodimerize with ss-DNA at any temperature"}, {"measurement": "concentrations of Pt-RNA adducts relative to Pt-DNA adducts", "setting": "Cytoplasmic RNA", "result": "5-6 times"}]}
{"smiles": "COc1cccc2c1C(=O)c1c(O)c3c(c(O)c1C2=O)C[C@@](O)(C(=O)CO)C[C@@H]3O[C@H]1C[C@H](N)[C@H](O)[C@H](C)O1", "note": "[doxorubicin]", "values": [{"measurement": "effect of co-incubation on SMAD4 sgRNA suppression", "setting": "SMAD4 sgRNA", "result": "did not alter the ability of SMAD4 sgRNA to effectively suppress expression levels"}, {"measurement": "adducts in the RNA macromolecule", "setting": "s-SMAD4 [2]", "result": "physical association multimers in non-covalent complexes with RNA"}]}
{"smiles": "CC[C@@]1(O)C(=O)OCc2c1cc1n(c2=O)Cc2cc3ccccc3nc2-1", "note": "[camptothecin]", "values": [{"measurement": "effect of co-incubation on SMAD4 sgRNA suppression", "setting": "SMAD4 sgRNA", "result": "did not alter the ability of SMAD4 sgRNA to effectively suppress expression levels"}, {"measurement": "adducts in the RNA macromolecule", "setting": "s-SMAD4 [2]", "result": "no adducts were detected"}]}
{"smiles": "Nc1ccn([C@@H]2O[C@H](CO)[C@@H](O)C2(F)F)c(=O)n1", "note": "[gemcitabine]", "values": [{"measurement": "effect of co-incubation on SMAD4 sgRNA suppression", "setting": "SMAD4 sgRNA", "result": "did not alter the ability of SMAD4 sgRNA to effectively suppress expression levels"}, {"measurement": "adducts in the RNA macromolecule", "setting": "s-SMAD4 [2]", "result": "no adducts were detected"}]}
{"smiles": "N[C@@H](Cc1ccc(N(CCCl)CCCl)cc1)C(=O)O", "note": "[melphalan]", "values": [{"measurement": "incubation time beyond which sgRNA was unable to prevent protein expression", "setting": "SMAD4 sgRNA", "result": "> 6", "unit": "h"}, {"measurement": "suppression of SMAD4 protein by sgRNA after coincubation", "setting": "SMAD4 sgRNA", "result": "unable to effectively suppress expression of SMAD4 protein"}, {"measurement": "time at which RNA adducts were formed", "setting": "s-SMAD4 [2]", "result": 60, "unit": "min"}]}
{"smiles": "O=C1[O][Pt]2([NH][C@@H]3CCCC[C@H]3[NH]2)[O]C1=O", "note": "[OxaPt(II), Oxaliplatin]", "values": [{"measurement": "DACHPt(5′-GMP)2 adducts as share of the total 5′-GMP pool", "setting": "5′-GMP; over the first 6 h, 10 mM 5′-GMP, 5 mM Pt, 37° C.", "result": "> 40", "unit": "%"}, {"measurement": "earliest time Pt-siRNA adducts detected", "setting": "BCL-2 siRNA [1]", "result": 1, "unit": "h"}, {"measurement": "effect of incubation with siRNA on silencing efficiency", "setting": "BCL-2 siRNA [5]", "result": "concentration and time-dependent decrease in silencing efficiency"}]}
